Data taken from patent US4639541A, “Substituted phenylacetic acid iodopropargyl esters, biocidal agents containing same and process for manufacturing same” (priority 1984, dated 1987).

Experiments:
Botrytis cinerea [1] = assay: Spore germination test, Botrytis cinerea; type: cell-based; details: Botrytis cinerea, 48 hours, 20° C., vs untreated control, read-out: degree of activity (fungal toxicity with respect to fungal spores)
Description: (§1) 50 μl of a solution or suspension of an active ingredient according to the invention together with 50 μl of a spore suspension produced by washing spores of an agar culture with a nutrient solution that contained per liter 10 g of sugar, 1 g of glycol, 1 g of KH2 PO4 and 0.5 g of MgSO4 were introduced into the concave-ground portion of concave-ground microscope slides.
(§2) The microscope slides were stored at 20° C. for 48 hours in a Petri dish, the base of which was covered with a moistened filter paper.
(§3) Subsequently, the ratio of germinated and non-germinated spores was compared with an untreated control specimen.
(§4) The degree of activity was calculated as a percentage in accordance with the following formula: [formula]

Botrytis cinerea [2] = assay: Fungicidal activity against Botrytis cinerea in broad beans; type: in vivo; details: 500 ppm spray, broad beans "Midget", after 6 days, 20° C., 95% humidity, vs untreated
Description: Broad beans of the "Midget" variety were grown to a height of approximately 10 cm. The plants were sprayed until dripping wet with spray liquors containing 500 ppm of active ingredient.
When the spray coating had dried, the plants were inoculated with a spore suspension of Botrytis cinerea. The plants were placed in a climatic cabinet at a constant 20° C. and an atmospheric humidity of 95%.
After 6 days, fungicidal activity was evaluated. The activity was ascertained in comparison with untreated specimens.
The degree of activity as a percentage was ascertained in accordance with the following formula [formula] The following were used as active ingredients: I 2-chloro-3,5-dinitrophenylacetic acid iodopropargyl ester

Fusarium culmorum = assay: Spore germination test, Fusarium culmorum; type: cell-based; details: Fusarium culmorum, 48 hours, 20° C., vs untreated control, read-out: degree of activity (fungal toxicity with respect to fungal spores)
Description: as §1, §2, §3, §4

Alternaria tenuis = assay: Spore germination test, Alternaria tenuis; type: cell-based; details: Alternaria alternata, 48 hours, 20° C., vs untreated control, read-out: degree of activity (fungal toxicity with respect to fungal spores)
Description: as §1, §2, §3, §4

Fusarium nivale = assay: Spore germination test, Fusarium nivale; type: cell-based; details: Microdochium nivale, 48 hours, 20° C., vs untreated control, read-out: degree of activity (fungal toxicity with respect to fungal spores)
Description: as §1, §2, §3, §4

Penicillium glaucum = assay: Spore germination test, Penicillium glaucum; type: cell-based; details: Penicillium, 48 hours, 20° C., vs untreated control, read-out: degree of activity (fungal toxicity with respect to fungal spores)
Description: as §1, §2, §3, §4

Verticillium dahliae = assay: Spore germination test, Verticillium dahliae; type: cell-based; details: Verticillium dahliae, 48 hours, 20° C., vs untreated control, read-out: degree of activity (fungal toxicity with respect to fungal spores)
Description: as §1, §2, §3, §4

Colletotrichum coffeanum = assay: Spore germination test, Colletotrichum coffeanum; type: cell-based; details: Colletotrichum coffeanum, 48 hours, 20° C., vs untreated control, read-out: degree of activity (fungal toxicity with respect to fungal spores)
Description: as §1, §2, §3, §4

Question: What does the source list for `O=C(Cc1ccccc1)OCC#CI` [V]?
Answer: inhibition of growth at 1 ppm (Botrytis cinerea [1]; 1 ppm): 0%; inhibition of growth at 2 ppm (Botrytis cinerea [1]; 2 ppm): 0%; inhibition of growth at 4 ppm (Botrytis cinerea [1]; 4 ppm): 50%; % Activity against Botrytis cinerea in broad beans (Botrytis cinerea [2]): 0%; inhibition of growth at 1 ppm (Fusarium culmorum; 1 ppm): 0%; inhibition of growth at 2 ppm (Fusarium culmorum; 2 ppm): 0%; inhibition of growth at 4 ppm (Fusarium culmorum; 4 ppm): 40%; inhibition of growth at 1 ppm (Alternaria tenuis; 1 ppm): 80%; inhibition of growth at 2 ppm (Alternaria tenuis; 2 ppm): 90%; inhibition of growth at 4 ppm (Alternaria tenuis; 4 ppm): 100%; inhibition of growth at 1 ppm (Fusarium nivale; 1 ppm): 60%; inhibition of growth at 2 ppm (Fusarium nivale; 2 ppm): 70%; inhibition of growth at 4 ppm (Fusarium nivale; 4 ppm): 90%; inhibition of growth at 1 ppm (Penicillium glaucum; 1 ppm): 0%; inhibition of growth at 2 ppm (Penicillium glaucum; 2 ppm): 0%; inhibition of growth at 4 ppm (Penicillium glaucum; 4 ppm): 40%; inhibition of growth at 1 ppm (Verticillium dahliae; 1 ppm): 0%; inhibition of growth at 2 ppm (Verticillium dahliae; 2 ppm): 0%; inhibition of growth at 4 ppm (Verticillium dahliae; 4 ppm): 30%; inhibition of growth at 1 ppm (Colletotrichum coffeanum; 1 ppm): 20%; inhibition of growth at 2 ppm (Colletotrichum coffeanum; 2 ppm): 30%; inhibition of growth at 4 ppm (Colletotrichum coffeanum; 4 ppm): 80%
